Like-named read-outs stand apart in the source and are kept apart here.
Tested on: HCT15 cells
Assay: MDR cell based killing assay, HCT15 cells with or without Verapamil (CellTiter-Glo)
Parameters: species or system human
Conditions: Homo sapiens
Experimental: To test the ability of the disclosed tubulysin payloads or prodrug payloads to kill human cell lines, an in vitro cytotoxicity assay can be performed. In vitro cytotoxicity of the disclosed payloads, as well as reference compounds, are evaluated using the CellTiter-Glo Assay Kit (Promega, Cat # G7573), in which the quantity of ATP present is used to determine the number of viable cells in culture. For the assay, C4-2, HEK293, or T47D cells are seeded at 4000 cells/well on Nunclon white 96-well plates in complete growth medium (DME high glucose:Ham's F12 at 4:1, 10% FBS, 100 units/ml Penicillin, 100 ug/ml streptomycin, 53 ug/ml glutatmine, 10 ug/ml insulin, 220 ng/ml biotin, 12.5 pg/ml T3, 12.5 ug/ml Adenine, 4 ug/ml transferrin for C42 cells; DME high glucose, 10% FBS, 100 units/ml Penicillin, 100 ug/ml streptomycin, 53 ug/ml glutatmine for HEK293; RPMI, 10% FBS, 100 units/ml Penicillin, 100 ug/ml streptomycin, 53 ug/ml glutatmine, 10 ug/ml insulin, 10 mM HEPEs, 200 nM Sodium Pyruvate for T47D cells) and grown overnight at 37° C. in 5% CO2. For cell viability curves, 1:3 serially diluted payloads are added to the cells at final concentrations ranging from 100 nM to 15 pM, including a no treatment control group, and are then incubated for 5 days. After the 5-day incubation, cells are incubated at room temperature with 100 μL of CellTiter-Glo reagents for 10 minutes. Relative luminescence units (RLU) can be determined on a Victor plate reader (PerkinElmer). The IC50 values are determined from a four-parameter logistic equation over a 10-point response curve (GraphPad Prism). All IC50 values are expressed in molar (M) concentration. The percent cell killing (% kill) at the maximum concentration tested is estimated from the following formula (100−% viable cells). Averages±standard deviation (SD) can be included where replicate experiments are performed.
In vitro cytotoxicity of the disclosed payloads as well as reference compounds are evaluated similarly as described above except using 1000 HCT15 cells, a colorectal carcinoma cell line, in growth medium (RPMI, 10% FBS, 100 units/ml Penicillin, 100 ug/ml streptomycin, 53 ug/ml glutatmine) with or without 5 ug/mL of Verapamil.
For each payload or prodrug payload, the HCT-15 IC50 in the absence of Verapamil is divided by the HCT-15 IC50 in the presence of Verapamil (HCT-15 IC50/HCT-15+Verapamil IC50). […] The reference compound, (MMAE), can have a ratio of 23.7. […]

[1] = HCT-15, read-out: HCT-15 with verapamil IC50

C#CCCCON(C(=O)[C@@H](NC(=O)[C@H]1CCCCN1C)[C@@H](C)CC)[C@H](C[C@@H](OC(C)=O)c1nc(C(=O)N[C@@H](Cc2ccc(NC(=O)CNC(=O)CN)cc2)CC(C)(C)C(=O)O)cs1)C(C)C [Compound P39, (4S)-4-({2-[(1R,3R)-1-(acetyloxy)-4-methyl-3-[(2S,3S)-3-methyl-2-{[(2R)-1-methylpiperidin-2-yl]formamido}-N-(pent-4-yn-1-yloxy)pentanamido]pentyl]-1,3-thiazol-4-yl}formamido)-5-{4-[2-(2-aminoacetamido)acetamido]phenyl}-2,2-dimethylpentanoic Acid]
IC50 (HCT-15, read-out: HCT-15 IC50): 0.62 nM

CCCCCCN(C(=O)[C@@H](NC(=O)[C@H]1CCCCN1C)[C@@H](C)CC)[C@H](C[C@@H](OC(C)=O)c1nc(C(=O)N[C@@H](Cc2ccc(F)cc2)CC(C)(C)C(=O)O)cs1)C(C)C [Compound P10, (4S)-4-({2-[(1R,3R)-1-(acetyloxy)-3-[(2S,3S)—N-hexyl-3-methyl-2-{[(2R)-1-methylpiperidin-2-yl]formamido}pentanamido]-4-methylpentyl]-1,3-thiazol-4-yl}formamido)-5-(4-fluorophenyl)-2,2-dimethylpentanoic Acid]
IC50 (HCT-15, read-out: HCT-15 IC50): 0.24 nM | IC50 [1]: 0.09 nM

CCCCCCN(C(=O)[C@@H](NC(=O)[C@H]1CCCCN1C)[C@@H](C)CC)[C@H](C[C@@H](OC(C)=O)c1nc(C(=O)N[C@@H](Cc2ccc(N)cc2)CC(C)(C)C(=O)O)cs1)C(C)C [Compound P7, (4S)-4-({2-[(1R,3R)-1-(acetyloxy)-3-[(2S,3S)—N-hexyl-3-methyl-2-{[(2R)-1-methylpiperidin-2-yl]formamido}pentanamido]-4-methylpentyl]-1,3-thiazol-4-yl}formamido)-5-(4-aminophenyl)-2,2-dimethylpentanoic Acid]
IC50 (HCT-15, read-out: HCT-15 IC50): 0.02 nM | IC50 [1]: 0.02 nM

C#CCCCON(C(=O)[C@@H](NC(=O)[C@H]1CCCCN1C)[C@@H](C)CC)[C@H](C[C@@H](OC(C)=O)c1nc(C(=O)NS(=O)(=O)Cc2ccc(N)cc2)cs1)C(C)C [Compound P49, (1R,3R)-1-(4-{[(4-aminophenyl)methanesulfonyl]carbamoyl}-1,3-thiazol-2-yl)-4-methyl-3-[(2S,3S)-3-methyl-2-{[(2R)-1-methylpiperidin-2-yl]formamido}-N-(pent-4-yn-1-yloxy)pentanamido]pentyl Acetate]
IC50 (HCT-15, read-out: HCT-15 IC50): 163 nM

CCCCCCN(C(=O)[C@@H](NC(=O)[C@H]1C[C@H](C)CCN1)[C@@H](C)CC)[C@H](C[C@@H](OC(C)=O)c1nc(C(=O)N[C@@H](Cc2ccc(N)c(F)c2)CC(C)(C)C(=O)O)cs1)C(C)C [Compound P14, (4S)-4-({2-[(1R,3R)-1-(acetyloxy)-3-[(2S,3S)—N-hexyl-3-methyl-2-{[(2R,4R)-4-methylpiperidin-2-yl]formamido}pentanamido]-4-methylpentyl]-1,3-thiazol-4-yl}formamido)-5-(4-amino-3-fluorophenyl)-2,2-dimethylpentanoic Acid]
IC50 (HCT-15, read-out: HCT-15 IC50): 1.21 nM | IC50 [1]: 0.1 nM

CCCCCCN(C(=O)[C@@H](NC(=O)[C@H]1CCCCN1C)[C@@H](C)CC)[C@H](C[C@@H](O)c1nc(C(=O)N[C@@H](Cc2ccc(N)c(F)c2)CC(C)(C)C(=O)O)cs1)C(C)C [Compound P1, (4S)-5-(4-amino-3-fluorophenyl)-4-({2-[(1R,3R)-3-[(2S,3S)—N-hexyl-3-methyl-2-{[(2R)-1-methylpiperidin-2-yl]formamido}pentanamido]-1-hydroxy-4-methylpentyl]-1,3-thiazol-4-yl}formamido)-2,2-dimethylpentanoic Acid]
IC50 (HCT-15, read-out: HCT-15 IC50): 3 nM | IC50 [1]: 0.26 nM

CCCCCCN(C(=O)[C@@H](NC(=O)[C@H]1CCCCN1C)[C@@H](C)CC)[C@H](C[C@@H](OCC)c1nc(C(=O)NS(=O)(=O)Cc2ccc(N)cc2)cs1)C(C)C [Compound P45, N-[(4-aminophenyl)methanesulfonyl]-2-[(1R,3R)-1-ethoxy-3-[(2S,3S)—N-hexyl-3-methyl-2-{[(2R)-1-methylpiperidin-2-yl]formamido}pentanamido]-4-methylpentyl]-1,3-thiazole-4-carboxamide]
IC50 (HCT-15, read-out: HCT-15 IC50): 75.7 nM

CCCCCCN(C(=O)[C@@H](NC(=O)[C@@]1(C)CCCN1)[C@@H](C)CC)[C@H](C[C@@H](OC(C)=O)c1nc(C(=O)N[C@@H](Cc2ccc(O)cc2)CC(C)(C)C(=O)O)cs1)C(C)C [Compound P22, (4S)-4-({2-[(1R,3R)-1-(acetyloxy)-3-[(2S,3S)—N-hexyl-3-methyl-2-{[(2R)-2-methylpyrrolidin-2-yl]formamido}pentanamido]-4-methylpentyl]-1,3-thiazol-4-yl}formamido)-5-(4-hydroxyphenyl)-2,2-dimethylpentanoic Acid]
IC50 (HCT-15, read-out: HCT-15 IC50): 0.27 nM | IC50 [1]: 0.08 nM

CCCCCCN(C(=O)[C@@H](NC(=O)[C@H]1CCCCN1C)[C@@H](C)CC)[C@H](C[C@@H](OCC)c1nc(C(=O)N[C@@H](Cc2ccccc2)CC(C)(C)C(=O)NS(=O)(=O)Cc2ccc(N)cc2)cs1)C(C)C [Compound P48, (2S,3S)—N-[(1R,3R)-1-(4-{[(2S)-4-{[(4-aminophenyl)methanesulfonyl]carbamoyl}-4,4-dimethyl-1-phenylbutan-2-yl]carbamoyl}-1,3-thiazol-2-yl)-1-ethoxy-4-methylpentan-3-yl]-N-hexyl-3-methyl-2-{[(2R)-1-methylpiperidin-2-yl]formamido}pentanamide]
IC50 (HCT-15, read-out: HCT-15 IC50): 65.8 nM

CCCCCCN(C(=O)[C@@H](NC(=O)[C@H]1C[C@H](C)CCN1C)[C@@H](C)CC)[C@H](C[C@@H](OC(C)=O)c1nc(C(=O)N[C@@H](Cc2ccc(N)c(F)c2)CC(C)(C)C(=O)O)cs1)C(C)C [Compound P13, (4S)-4-({2-[(1R,3R)-1-(acetyloxy)-3-[(2S,3S)-2-{[(2R,4R)-1,4-dimethylpiperidin-2-yl]formamido}-N-hexyl-3-methylpentanamido]-4-methylpentyl]-1,3-thiazol-4-yl}formamido)-5-(4-amino-3-fluorophenyl)-2,2-dimethylpentanoic Acid]
IC50 (HCT-15, read-out: HCT-15 IC50): 0.15 nM | IC50 [1]: 0.13 nM

CCCCCON(C(=O)[C@@H](NC(=O)[C@H]1CCCCN1)[C@@H](C)CC)[C@H](C[C@@H](OC(C)=O)c1nc(C(=O)N[C@@H](Cc2ccc(N)cc2)CC(C)(C)C(=O)O)cs1)C(C)C [Compound P36, (4S)-4-({2-[(1R,3R)-1-(acetyloxy)-4-methyl-3-[(2S,3S)-3-methyl-N-(pentyloxy)-2-[(2R)-piperidin-2-ylformamido]pentanamido]pentyl]-1,3-thiazol-4-yl}formamido)-5-(4-aminophenyl)-2,2-dimethylpentanoic Acid]
IC50 (HCT-15, read-out: HCT-15 IC50): 12.2 nM

CCCCCCN(C(=O)[C@@H](NC(=O)[C@H]1CCCCN1C)[C@@H](C)CC)[C@H](C[C@@H](OC(C)=O)c1nc(C(=O)NS(=O)(=O)c2ccc(CN)cc2)cs1)C(C)C [Compound P42, (1R,3R)-1-(4-{[4-(aminomethyl)benzenesulfonyl]carbamoyl}-1,3-thiazol-2-yl)-3-[(2S,3S)—N-hexyl-3-methyl-2-{[(2R)-1-methylpiperidin-2-yl]formamido}pentanamido]-4-methylpentyl Acetate]
IC50 (HCT-15, read-out: HCT-15 IC50): > 100 nM | IC50 [1]: 48.4 nM

C#CCCCON(C(=O)[C@@H](NC(=O)[C@@]1(C)CCCN1)[C@@H](C)CC)[C@H](C[C@@H](OC(C)=O)c1nc(C(=O)N[C@@H](Cc2ccc(N)c(F)c2)CC(C)(C)C(=O)O)cs1)C(C)C [Compound P35, (4S)-4-({2-[(1R,3R)-1-(acetyloxy)-4-methyl-3-[(2S,3S)-3-methyl-2-{[(2R)-2-methylpyrrolidin-2-yl]formamido}-N-(pent-4-yn-1-yloxy)pentanamido]pentyl]-1,3-thiazol-4-yl}formamido)-5-(4-amino-3-fluorophenyl)-2,2-dimethylpentanoic Acid]
IC50 (HCT-15, read-out: HCT-15 IC50): 4.87 nM

C#CCCCON(C(=O)[C@@H](NC(=O)[C@H]1CCCCN1C)[C@@H](C)CC)[C@H](C[C@@H](OC(C)=O)c1nc(C(=O)N[C@@H](Cc2ccc(NC(=O)CO)cc2)CC(C)(C)C(=O)O)cs1)C(C)C [Compound P37, (4S)-4-({2-[(1R,3R)-1-(acetyloxy)-4-methyl-3-[(2S,3S)-3-methyl-2-{[(2R)-1-methylpiperidin-2-yl]formamido}-N-(pent-4-yn-1-yloxy)pentanamido]pentyl]-1,3-thiazol-4-yl}formamido)-5-[4-(2-hydroxyacetamido)phenyl]-2,2-dimethylpentanoic Acid]
IC50 (HCT-15, read-out: HCT-15 IC50): 102 nM
